According to patent US4243668A, “Octahydro-1H-benzo[4,5]furo[3,2-e]-isoquinoline analgesic and narcotic antagonistic compounds” (priority 1979, dated 1981):

Assays:
[1] = cited from earlier work; for intrinsic analgesic activity, in words: background statement
[2] = tested on: induction of Straub tail in mice by a highly addicting agonist such as morphine; conditions: Blumberg et al. 1968; cited from earlier work
[3] = tested on: induction of Straub tail in mice by a highly addicting agonist such as morphine; test: anti-Straub tail test, antagonism of morphine-induced Straub tail (narcotic antagonism); assay type: in vivo, Female CF1 S mice; conditions: Mus musculus, sc, mice, s.c.; vs morphine sulfate 30 mg/kg i.p.; read-out: EFFECT ED50 subcutaneous(s.c.) Anti-Straub Tail
[4] = tested on: pain induced by phenylquinone; test: phenylquinone writhing test (oral anti-PQW), analgesic activity; assay type: in vivo, female white mice; conditions: for ED50: Mus musculus, po, mice, oral, phenylquinone writhing, read-out: EFFECT ED50 Oral Anti-PQW
Method: A standard procedure for detecting and comparing the analgesic activity of compounds in this series for which there is good correlation with human efficacy is the standard phenylquinone writhing test modified from Siegmund, et al., Proc. Soc. Exp. Biol. Med., 95, 729 (1957). A test compound suspended in 1% methocel® was given orally to fasted (17-21 hours) female white mice, 5-20 animals per double blind test. Aqueous (0.01% phenyl-p-benzoquinone) phenylquinone was injected intraperitoneally at 24 minutes later using 0.20 ml per mouse. […] The effective analgesic dose for 50% of the mice (ED50) was calculated by the moving average method of Thompson, W. R., Bact. Rev., 11, 115-145 (1947).

[5] = tested on: Straub tail; test: Straub tail reaction (oral), narcotic agonist effect; assay type: in vivo, CF1 S female mice; conditions: Mus musculus, mice
Method: Narcotic analgesics produce in mice an erection and arching of the tail (90° or more) which is referable to spinal cord stimulation. This Straub tail reaction is not produced by other analgesics, including the narcotic antagonists.
The method used was modified from Shemano, I., and Wendel, H., Tox. Appl. Pharm., 6, 334-9 (1964). CF1 S female mice (18-21 g), 10-20 mice per dose, were intubated with log scaled doses of analgesic in 1% aqueous methylcellulose. A positive Straub tail response was recorded if a tail was erected 90° or more for 5 seconds at any time within 24 minutes after dosing. A quantal Straub tail ED50 was calculated by the moving average method [Thompson, W. R., Bact. Rev., 11, 115-145 (1947)].

| SMILES | intrinsic analgesic activity, in words [1] | prevention of morphine-induced Straub tail, in words [2] | analgetic properties in man, in words ([1]; in man, Lasagna and Beecher 1954) | ED50 [3] | ED50 [4] | ED50 [5] | analgesic potency compared with morphine ([4]; mouse analgesia data, relative to morphine) |
| --- | --- | --- | --- | --- | --- | --- | --- |
| C=CCN1CC[C@]23CCCC[C@H]2[C@H]1Cc1ccc(O)cc13 [levallorphan] | some analgesic effects |  |  |  |  |  |  |
| C=CCN1CC[C@]23c4c5ccc(O)c4O[C@H]2C(=O)CC[C@@]3(O)[C@H]1C5 [naloxone] |  | prevent the induction of Straub tail in mice |  |  |  |  |  |
| C=CCN1CC[C@]23c4c5ccc(O)c4O[C@H]2[C@@H](O)C=C[C@H]3[C@H]1C5 [nalorphine] | some analgesic effects | prevent the induction of Straub tail in mice | analgetic properties in man |  |  |  |  |
| COc1cccc2c1O[C@H]1CCC[C@H]3CN(CC=C(C)C)CC[C@@]231 (relative stereo) [Example 17, 3-(3'-Methyl-2'-butenyl)-9-methoxy-2,3,4,4aα,5,6,7,7aα-octahydro-1H-benzo[4,5]furo[3,2-e]isoquinoline] |  |  |  | 7.8 mg/kg | 18.7 mg/kg | > 135 mg/kg |  |
| COc1cccc2c1O[C@H]1CCC[C@H]3CN(CC#N)CC[C@@]231 (relative stereo) [Example 20, 9-Methoxy-2,3,4,4aα,5,6,7,7aα-octahydro-1H-benzo[4,5]furo[3,2-e]isoquinoline-3-acetonitrile] |  |  |  | > 27 mg/kg | 26 mg/kg | > 135 mg/kg |  |
| CN1CC[C@]23c4cccc(O)c4O[C@H]2CCC[C@H]3C1 (relative stereo) [Example 3, 3-Methyl-2,3,4,4aα,5,6,7,7aα-octahydro-1H-benzo[4,5]furo[3,2-e]isoquinolin-9-ol] |  |  |  | 0.27 mg/kg | 3.5 mg/kg | > 135 mg/kg |  |
| COc1cccc2c1OC1CCCC3CN(Cc4ccco4)CCC231 (stereo not drawn) [Example 37] |  |  |  | 12 mg/kg | 84 mg/kg | > 135 mg/kg |  |
| Oc1cccc2c1O[C@H]1CCC[C@H]3CN(CC4CC4)CC[C@@]231 (relative stereo) [Example 5, 3-Cyclopropylmethyl-2,3,4,4aα,5,6,7,7aα-octahydro-1H-benzo[4,5]furo[3,2-e]isoquinolin-9-ol] |  |  |  | 0.006 mg/kg | 0.75 mg/kg | > 81 mg/kg | several times greater potency than morphine |
